The text below walks through data of patent publication US10071967B2, “N-cycloalkyl-N-{[2-(1-substitutedcycloalkyl)phenyl]methylene}-(thio)carboxamide derivatives” (BAYER CROPSCIENCE AKTIENGESELLSCHAFT, priority 2013, dated 2018).

A short description of one series: log P by HPLC on a reversed-phase column (C 18), EEC Directive 79/831 Annex V.A8. To be noted: HPLC reversed-phase C 18, 40° C., 0.1% aqueous formic acid and acetonitrile, gradient 10% to 90% acetonitrile. Type of series: physicochemical. On the procedure: In table 1, the log P values were determined in accordance with EEC Directive 79/831 Annex V.A8 by HPLC (High Performance Liquid Chromatography) on a reversed-phase column (C 18), using the method described below: Temperature: 40° C.; Mobile phases: 0.1% aqueous formic acid and acetonitrile; linear gradient from 10% acetonitrile to 90% acetonitrile. Calibration was carried out using unbranched alkan-2-ones (comprising 3 to 16 carbon atoms) with known log P values (determination of the log P values by the retention times using linear interpolation between two successive alkanones). lambda-max-values were determined using UV-spectra from 200 nm to 400 nm and the peak values of the chromatographic signals.
As a reminder, the logP is the decadic logarithm of the partition coefficient of the neutral form, usually between octanol and water. A high value points to a more lipophilic compound. Take `Cn1cc(C(=S)N(Cc2cc(F)ccc2C2(C(F)(F)F)CC2)C2CC2)c(C(F)F)n1` [Example 1.152]: the logP was determined as 3.94.

For the compound `Cc1cc(C(=O)N(Cc2cc(F)ccc2C2(C(F)(F)F)CC2)C2CC2)c(C)o1` [Example 1.151], the logP came to 4.44.

`COCC1(c2ccc(C)cc2CN(C(=O)c2cc(C)oc2C)C2CC2)CC1` [Example 1.155]: the logP was found to be 4.03.

`Cc1nn(C)c(Cl)c1C(=O)N(Cc1cc(Cl)c(Cl)cc1C1(C)CC1)C1CC1` [Example 1.161] yielded a logP of 4.61.

For the compound `COCC1(c2ccc(C)cc2CN(C(=O)c2cn(C)nc2C)C2CC2)CC1` [Example 1.157], the logP stood at 2.61.

In the case of `COCC1(c2ccc(C)cc2CN(C(=O)c2cn(C)nc2C(F)F)C2CC2)CC1` [Example 1.154], the logP is reported as 3.13.

For the compound `Cn1cc(C(=O)N(Cc2cc(Cl)c(Cl)cc2C2(C)CC2)C2CC2)c(C(F)F)n1` [Example 1.163], the logP was 4.28.

Still in this series, the particulars now being: HPLC, reversed-phase column (C 18), 40° C.; 0.1% aqueous formic acid and acetonitrile, linear gradient 10% to 90% acetonitrile.
`CCOC1(c2ccc(C)cc2CN(C(=O)c2c(C)nn(C)c2F)C2CC2)CC1` [Example 1.127] yielded a logP of 3.53.

In turn, `CCC1(c2cc(Cl)ccc2CN(C(=O)c2c(C)nn(C)c2F)C2CC2)CC1` [Example 1.069] registered a logP of 4.25.

The compound `Cc1nn(C)c(F)c1C(=O)N(Cc1cc(Cl)ccc1C1(C(F)F)CC1)C1CC1` [Example 1.136] came in with a logP of 3.33.

`COc1ccc(CN(C(=O)c2cn(C)nc2C(F)F)C2CC2)c(C2(C)CC2)c1` [Example 1.017] had a logP of 3.31.

Compound `CCC1(c2ccccc2CN(C(=S)c2cn(C)nc2C(F)F)C2CC2)CC1` [Example 1.068] returned a logP of 4.37.

With `CCC1(c2cc(C)c(F)cc2CN(C(=O)c2c(C)nn(C)c2F)C2CC2)CC1` [Example 1.082], the logP worked out at 4.26.

Compound `Cc1ccc(C2(C(C)C)CC2)c(CN(C(=O)c2cn(C)nc2C)C2CC2)c1` [Example 1.124] displayed a logP of 3.96.

`CCC1(c2ccc(Cl)cc2CN(C(=O)c2c(C)nn(C)c2F)C2CC2)CC1` [Example 1.087] displayed a logP of 4.23.

`Cc1cc(C(=O)N(Cc2cccc(Cl)c2C2(C)CC2)C2CC2)c(C)o1` [Example 1.002] gave a logP of 4.92.

`CCC1(c2cc(C)c(F)cc2CN(C(=O)c2cn(C)nc2C(F)F)C2CC2)CC1` [Example 1.081] yielded a log partition coefficient (logP) of 4.24.

The compound `Cc1cc(C(=S)N(Cc2ccc(Cl)cc2C2(C)CC2)C2CC2)c(C)o1` [Example 1.012] gave a logP of 5.65.

As for `Cc1ccc(C2(C(F)F)CC2)c(CN(C(=O)c2c(C)nn(C)c2F)C2CC2)c1` [Example 1.139], the logP turned out to be 3.21.

As to `Cc1ccc(C2(C(F)F)CC2)c(CN(C(=S)c2c(C)nn(C)c2F)C2CC2)c1` [Example 1.141], the logP stood at 3.81.

`Cn1cc(C(=O)N(Cc2cc(Br)ccc2C2(C(F)F)CC2)C2CC2)c(C(F)F)n1` [Example 1.134] gave a logP of 3.44.

`CCOC1(c2ccc(C)cc2CN(C(=O)c2cn(C)nc2C)C2CC2)CC1` [Example 1.129]: the logP amounted to 3.02.

`CCC1(c2ccc(Cl)cc2CN(C(=O)c2c(OC(F)F)nn(C)c2Cl)C2CC2)CC1` [Example 1.090] came in with a logP of 5.03.

In the case of `Cc1ccc(C2(C)CC2)c(CN(C(=O)c2c(C(F)(F)F)nn(C)c2F)C2CC2)c1` [Example 1.038], the logP stood at 4.61.

`Cc1cc(C(=O)N(Cc2ccccc2C2(C(F)(F)F)CC2)C2CC2)c(C)o1` [Example 1.146] returned a logP of 4.31.

For `CCC1(c2ccc(C)cc2CN(C(=O)c2cc(C)oc2C)C2CC2)CC1` [Example 1.097], the logP is 5.14.

`Cn1cc(C(=O)N(Cc2cc(F)ccc2C2(C(F)(F)F)CC2)C2CC2)c(C(F)F)n1` [Example 1.150] gave a logP of 3.48.

`Cc1cc(C(=O)N(Cc2cc(Br)ccc2C2(C)CC2)C2CC2)c(C)o1` [Example 1.028]: the logP came out at 5.08.

For `Cc1cc(C(=O)N(Cc2ccc(Cl)cc2C2(C)CC2)C2CC2)c(C)o1` [Example 1.007], the logP is 4.98. The logP values of the last two compounds are within 0.2 log units of each other.

For `Cc1ccc(C2(C(F)F)CC2)c(CN(C(=O)c2cn(C)nc2C(F)F)C2CC2)c1` [Example 1.138], the logP amounted to 3.29.

The compound `CCC1(c2cc(C)c(F)cc2CN(C(=O)c2c(C)nn(C)c2Cl)C2CC2)CC1` [Example 1.078] returned a logP of 4.49.

For `CCC1(c2cc(C)ccc2CN(C(=O)c2c(C)nn(C)c2F)C2CC2)CC1` [Example 1.075], the logP is reported as 4.11.

On to `CCC1(c2cc(C)c(F)cc2CN(C(=O)c2cc(C)oc2C(F)F)C2CC2)CC1` [Example 1.080], for which the logP stood at 5.25.

`Cc1ccc(C2(Cl)CC2)c(CN(C(=O)c2c(C)nn(C)c2F)C2CC2)c1` [Example 1.106] returned a logP of 3.42.

Regarding `Cc1nn(C)cc1C(=S)N(Cc1cccc(F)c1C1(C)CC1)C1CC1` [Example 1.005], the logP came out at 3.64.

As for `Cc1ccc(C2(C)CC2)c(CN(C(=O)c2c(C(F)F)nn(C(C)(C)C)c2C(F)F)C2CC2)c1` [Example 1.039], the logP worked out at 5.35.

On to `Cn1cc(C(=S)N(Cc2cccc(F)c2C2(C)CC2)C2CC2)c(C(F)F)n1` [Example 1.006], for which the logP stood at 4.04.

`Cn1cc(C(=O)N(Cc2ccc(F)cc2C2(C)CC2)C2CC2)c(C(F)F)n1` [Example 1.013]: the logP was 3.52.

As for `Cc1ccc(C2(C3CC3)CC2)c(CN(C(=O)c2cc(C)oc2C)C2CC2)c1` [Example 1.109], the logP was found to be 5.05.

Compound `Cc1ccc(C2(Cl)CC2)c(CN(C(=O)c2cn(C)nc2C(F)F)C2CC2)c1` [Example 1.105] registered a logP of 3.51.

As for `CCC1(c2ccc(C)cc2CN(C(=O)c2nn(C)nc2C(F)F)C2CC2)CC1` [Example 1.094], the logP is 4.77.

With `Cn1cc(C(=O)N(Cc2cccc(F)c2C2(C)CC2)C2CC2)c(C(F)F)n1` [Example 1.003], the logP is 3.46.

`CCC1(c2ccc(C(F)(F)F)cc2CN(C(=O)c2c(C)nn(C)c2F)C2CC2)CC1` [Example 1.084] displayed a logP of 4.34.

In turn, `CCOC1(c2ccc(C)cc2CN(C(=O)c2nn(C)cc2C(F)F)C2CC2)CC1` [Example 1.130] registered a logP of 3.94.

In turn, `Cc1ccc(C2(C)CC2)c(CN(C(=O)c2cn(C)nc2C(F)(F)F)C2CC2)c1` [Example 1.037] yielded a logP of 4.16.

`CCC1(c2cc(C)c(F)cc2CN(C(=O)c2cc(C)oc2C)C2CC2)CC1` [Example 1.083] registered a logP of 5.34.

The compound `CCC1(c2cccc(F)c2CN(C(=O)c2c(C)nn(C)c2F)C2CC2)CC1` [Example 1.103] returned a logP of 3.63.

In turn, `Cn1cc(C(=S)N(Cc2cc(Cl)ccc2C2(C(F)(F)F)CC2)C2CC2)c(C(F)F)n1` [Example 1.149] displayed a logP of 4.23.

Take `CCC1(c2ccc(C)cc2CN(C(=S)c2cn(C)nc2C(F)F)C2CC2)CC1` [Example 1.099]: the logP stood at 4.69.

`COC1(c2ccccc2CN(C(=O)c2cn(C)nc2C(F)F)C2CC2)CC1` [Example 1.104]: the logP was 2.88.

`CCC1(c2ccc(C)cc2CN(C(=O)c2cn(C)nc2C(F)F)C2CC2)CC1` [Example 1.092] had a logP of 4.19.

As for `Cc1cc(C(=O)N(Cc2ccc(-c3ccccc3)cc2C2(C)CC2)C2CC2)c(C)o1` [Example 1.021], the logP worked out at 5.48.

The compound `CCCC1(c2ccc(C)cc2CN(C(=S)c2cn(C)nc2C(F)F)C2CC2)CC1` [Example 1.116] returned a logP of 5.08.

In turn, `Cc1ccc(C2(C)CC2)c(CN(C(=O)c2c(C(F)(F)F)nn(C)c2Cl)C2CC2)c1` [Example 1.041] displayed a logP of 4.82.

As for `CCC1(c2cc(Cl)ccc2CN(C(=O)c2cc(C)oc2C)C2CC2)CC1` [Example 1.071], the logP is recorded as 5.34.

The compound `CCCC1(c2cc(Cl)ccc2CN(C(=O)c2cc(C)oc2C(F)F)C2CC2)CC1` [Example 1.111] displayed a logP of 5.78.

For `Cn1cc(C(=O)N(Cc2cc(F)c(F)cc2C2(C)CC2)C2CC2)c(C(F)F)n1` [Example 1.019], the logP was 3.68.

Turning to `Cn1cc(C(=O)N(Cc2cccc(Cl)c2C2(C)CC2)C2CC2)c(C(F)F)n1` [Example 1.001], the logP was found to be 3.89.

With `CCC1(c2cc(C)ccc2CN(C(=O)c2cn(C)nc2C(F)F)C2CC2)CC1` [Example 1.074], the logP is 4.16.

In turn, `CCC1(c2cc(Cl)ccc2CN(C(=O)c2nn(C)nc2C(F)F)C2CC2)CC1` [Example 1.073] yielded a logP of 4.87.

`Cc1ccc(C2(C)CC2)c(CN(C(=O)c2oc(C)nc2C(F)F)C2CC2)c1` [Example 1.046] yielded a logP of 4.39.

As for `Cn1nc(C(=O)N(Cc2ccc(Cl)cc2C2(C)CC2)C2CC2)c(C(F)F)n1` [Example 1.009], the logP is 4.54.

On to `Cc1nn(C)cc1C(=O)N(Cc1cc(Br)ccc1C1(C)CC1)C1CC1` [Example 1.026], for which the logP is recorded as 3.44.

Still in this series, the particulars now being: Table 2, compounds of formula (I); HPLC C 18, 40° C., 0.1% aqueous formic acid and acetonitrile.
`Cn1cc(C(=O)N(Cc2cccc3c2C2(CCC3)CC2(Cl)Cl)C2CC2)c(C(F)F)n1` (racemic) [Ia.04]: the logP is 4.06.

Still in this series, the particulars now being: Table 4, compounds of formula (IV); HPLC C 18, 40° C., 0.1% aqueous formic acid and acetonitrile.
In turn, “1-(2-formyl-4-methylphenyl)cyclopropanecarbonitrile [IV.16]” registered a logP of 2.08.

The same series, now with this note: reversed-phase C18 HPLC column; given in the preparation examples.
The term chromatographic logP denotes a lipophilicity value derived from retention on a column. The low end stands for a more hydrophilic compound, the high end for a more lipophilic compound. `Cn1cc(C(=O)N(Cc2cc(F)ccc2C2(C(F)F)CC2)C2CC2)c(C(F)F)n1` [I.137, N-cyclopropyl-3-(difluoromethyl)-N-{2-[1-(difluoromethyl)cyclopropyl]-5-fluorobenzyl}-1-methyl-1H-pyrazole-4-carboxamide] came in with a chromatographic logP of 3.09.
